Experimental data taken from article PMC3669539, “Explant cultures of Rpe65^−/− mouse retina: a model to investigate cone opsin trafficking” (Molecular Vision, 2013).

Biological target: T1, mouse UV cone opsin (Mus musculus, UniProt P51491)
T1 construct: gene Opn1sw; pMT-2 vector, COS-1 cell membranes; transducin from bovine retina as read-out
T1 sequence (P51491 1-346): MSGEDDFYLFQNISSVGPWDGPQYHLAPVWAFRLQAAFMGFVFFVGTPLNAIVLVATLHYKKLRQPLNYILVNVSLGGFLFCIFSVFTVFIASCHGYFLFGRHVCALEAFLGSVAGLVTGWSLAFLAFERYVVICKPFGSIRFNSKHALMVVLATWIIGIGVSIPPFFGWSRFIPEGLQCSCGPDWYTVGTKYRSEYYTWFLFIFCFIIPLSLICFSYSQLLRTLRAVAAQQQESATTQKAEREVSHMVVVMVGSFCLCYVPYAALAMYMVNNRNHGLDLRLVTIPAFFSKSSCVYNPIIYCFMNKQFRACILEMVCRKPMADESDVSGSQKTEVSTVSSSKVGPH
Test: transducin activation, radioactive GTPgammaS35 filter-binding assay
Type: biochemical
Conditions: agonist, 20 or 200 µM; COS-1 membranes, bovine transducin 2.5 µM, 3 µM GTPgammaS, pH 6.4, 50 mM MgCl2, dim red light

CC1=C(/C=C/C(C)=C/C=C/C(C)=C/C(=O)O)C(C)(C)CCC1 [all-trans retinoic acid]
transducin activation, radioactive GTPgammaS35 filter-binding assay: RA, on the other hand, did increase mouse UV-opsin activity significantly
